PubChem BioAssay AID1963843 (Molecular Pharmacology Branch, DTP, NCI, 2024)

Tested on: 616215-338-R-J1-PDC complex spheroid viability
Assay: Anticancer human tumor 616215-338-R-J1-PDC patient-derived colon adenocarcinoma cell line growth inhibition [POLQ]
Details: for IC50: curve of first compound; for viability, T/C: stronger effect = lower value
How it was run: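 Growth inhibition in 3D: complex spheroids (tumor PDC, HUVEC, MSC) treated with POLQ inhibitor combinations; where Cmax unknown, highest tested concentration 10 microM, except SN-38 at 1 microM.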
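Also: spheroids exposed to compounds for one week before readout.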
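For viability, T/C in this document: percent viability relative to DMSO vehicle wells taken as 100%.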

## CC1COCCN1c1cc(C2(O)CC3CCC(C2)O3)c2cnn(-c3ccn[nH]3)c2n1 (configuration not stated) + Nc1ccc(C#CCN(C(=O)Cc2ncc(C(F)(F)F)cc2C(F)(F)F)c2ccc(F)cc2)nn1
Second compound 0.0316 µM
  IC50: 337 nM
Second compound 0.1 µM
  IC50: 276 nM
Second compound 0.316 µM
  IC50: 271 nM
Second compound 1 µM
  IC50: 250 nM
Second compound 3.16 µM
  IC50: 143 nM
Second compound 10 µM
  IC50: 160 nM
Second compound 0.0316 µM, first compound 0.0316 µM
  viability, T/C: 94.8%
Second compound 0.0316 µM, first compound 0.1 µM
  viability, T/C: 67.6%
Second compound 0.0316 µM, first compound 0.316 µM
  viability, T/C: 52.2%
Second compound 0.0316 µM, first compound 1 µM
  viability, T/C: 37.1%
Second compound 0.0316 µM, first compound 3.16 µM
  viability, T/C: 24.3%
Second compound 0.0316 µM, first compound 10 µM
  viability, T/C: 17.9%
Second compound 0.1 µM, first compound 0.0316 µM
  viability, T/C: 98.6%
Second compound 0.1 µM, first compound 0.1 µM
  viability, T/C: 76.6%
Second compound 0.1 µM, first compound 0.316 µM
  viability, T/C: 37.8%
Second compound 0.1 µM, first compound 1 µM
  viability, T/C: 38.1%
Second compound 0.1 µM, first compound 3.16 µM
  viability, T/C: 24.3%
Second compound 0.1 µM, first compound 10 µM
  viability, T/C: 15.3%
Second compound 0.316 µM, first compound 0.0316 µM
  viability, T/C: 93.8%
Second compound 0.316 µM, first compound 0.1 µM
  viability, T/C: 76.3%
Second compound 0.316 µM, first compound 0.316 µM
  viability, T/C: 42%
Second compound 0.316 µM, first compound 1 µM
  viability, T/C: 35.2%
Second compound 0.316 µM, first compound 3.16 µM
  viability, T/C: 27.6%
Second compound 0.316 µM, first compound 10 µM
  viability, T/C: 19.9%
Second compound 1 µM, first compound 0.0316 µM
  viability, T/C: 94.1%
Second compound 1 µM, first compound 0.1 µM
  viability, T/C: 69.1%
Second compound 1 µM, first compound 0.316 µM
  viability, T/C: 39.5%
Second compound 1 µM, first compound 1 µM
  viability, T/C: 36.8%
Second compound 1 µM, first compound 3.16 µM
  viability, T/C: 28.6%
Second compound 1 µM, first compound 10 µM
  viability, T/C: 18.5%
Second compound 3.16 µM, first compound 0.0316 µM
  viability, T/C: 92.8%
Second compound 3.16 µM, first compound 0.1 µM
  viability, T/C: 54.9%
Second compound 3.16 µM, first compound 0.316 µM
  viability, T/C: 36.3%
Second compound 3.16 µM, first compound 1 µM
  viability, T/C: 26.7%
Second compound 3.16 µM, first compound 3.16 µM
  viability, T/C: 27.3%
Second compound 3.16 µM, first compound 10 µM
  viability, T/C: 14.6%
Second compound 10 µM, first compound 0.0316 µM
  viability, T/C: 101%
Second compound 10 µM, first compound 0.1 µM
  viability, T/C: 56.2%
Second compound 10 µM, first compound 0.316 µM
  viability, T/C: 36.6%
Second compound 10 µM, first compound 1 µM
  viability, T/C: 26.9%
Second compound 10 µM, first compound 3.16 µM
  viability, T/C: 24.2%
Second compound 10 µM, first compound 10 µM
  viability, T/C: 9.04%
